Experimental findings from ChEMBL document CHEMBL5126667, “Tigliane-Type Diterpene Esters from the Fruits of Shirakiopsis indica and Their Anti-HIV Activity” (J Nat Prod, 2022) are described below.

Data set [1] relates to Human immunodeficiency virus. The experiment in a line: Antiviral activity against HIV NL4-3 infected in MT-4 cells assessed as viral replication measured after 4 days by p24-ELISA. The format is functional, organism-based. Conditions: Human immunodeficiency virus 1, NL4-3, MT4, 96 h. On the technique in general: ELISA stands for enzyme-linked immunosorbent assay.
Data set [2] can be described thus: Therapeutic index, ratio of cytotoxicity against human MT4 cells to antiviral activity against HIV NL4-3. In kind it is toxicity, cell-based. To be noted: read-out: TI.

As to `Cc1cn([C@H]2C[C@H](N=[N+]=[N-])[C@@H](CO)O2)c(=O)[nH]c1=O` [ZIDOVUDINE], the half-maximal effective concentration (EC50) (commonly the concentration giving half of the maximal effect) in data set [1] came out at 20 nM. For the same compound, the selectivity ratio in data set [2] is > 22.
In the same order, the values of `CCC/C=C/C=C/C=C\C(=O)O[C@@H]1[C@@H](C)[C@]2(O)[C@@H]3C=C(C)C(=O)[C@H]3CC(CO)=C[C@H]2[C@@H]2C(C)(C)[C@]12OC(C)=O` are 130 nM and 161.
Turning to `CNc1ccccc1C(=O)O[C@@H]1[C@@H](C)[C@@]2(O)[C@@H](C=C(CO)C[C@]3(O)C(=O)C(C)=C[C@@H]23)[C@@H]2C(C)(C)[C@]12OC(C)=O`, in data set [1], the EC50 was 44 nM. Besides, in data set [2], the selectivity ratio came out at 5290.
For `CNc1ccccc1C(=O)O[C@@H]1[C@@H](C)[C@]2(O)[C@@H]3C=C(C)C(=O)[C@H]3CC(CO)=C[C@H]2[C@@H]2C(C)(C)[C@]12OC(C)=O` [SAPINTOXIN A], in that order: 7.4 nM and 1100.
